Blank lines part the entries; values can stand above or below the compound they belong to.
System: 941728-121-R-J1-PDC complex spheroid viability
Assay: Anticancer human tumor 941728-121-R-J1-PDC patient-derived lung adenocarcinoma cell line growth inhibition [RAS]
Conditions: for IC50: curve of first compound; for viability, T/C: stronger effect = lower value
Summary of the method: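 Tumour cells grown as complex spheroids with HUVEC endothelial cells and mesenchymal stem cells, treated with RAS pathway inhibitor combinations. Each agent spans half-log steps from near clinical Cmax, or 10 microM where Cmax is unknown.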
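Further: spheroids exposed to compounds for 7 days before readout.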
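Wherever viability, T/C is given: 100% = DMSO vehicle control viability.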

IC50 (second compound 0.000949 µM): < 3.16 nM | IC50 (second compound 0.003 µM): < 3.16 nM | IC50 (second compound 0.00949 µM): < 3.16 nM | IC50 (second compound 0.03 µM): < 3.16 nM | IC50 (second compound 0.0949 µM): < 3.16 nM | IC50 (second compound 0.3 µM): < 3.16 nM
SMILES: C=CC(=O)N1CCN(c2nc(OCC3CCCN3C)nc3c(F)c(-c4nc(N)cc(C)c4C(F)(F)F)c(Cl)cc23)C(C)C1 (centres undefined) + CCn1c(-c2cc(N3CCN(C)CC3)cnc2C(C)OC)c2c3cc(ccc31)-c1csc(n1)CC(NC(=O)C1CC1C)C(=O)N1CCCC(N1)C(=O)OCC(C)(C)C2
viability, T/C (second compound 0.000949 µM, first compound 0.00316 µM): 20.1% | viability, T/C (second compound 0.000949 µM, first compound 0.01 µM): 19.7% | viability, T/C (second compound 0.000949 µM, first compound 0.0316 µM): 14.8% | viability, T/C (second compound 0.000949 µM, first compound 0.1 µM): 18.7% | viability, T/C (second compound 0.000949 µM, first compound 0.316 µM): 20.2% | viability, T/C (second compound 0.000949 µM, first compound 1 µM): 16.2% | viability, T/C (second compound 0.003 µM, first compound 0.00316 µM): 16.9% | viability, T/C (second compound 0.003 µM, first compound 0.01 µM): 15.7% | viability, T/C (second compound 0.003 µM, first compound 0.0316 µM): 14.5% | viability, T/C (second compound 0.003 µM, first compound 0.1 µM): 17.2% | viability, T/C (second compound 0.003 µM, first compound 0.316 µM): 19.6% | viability, T/C (second compound 0.003 µM, first compound 1 µM): 14.6% | viability, T/C (second compound 0.00949 µM, first compound 0.00316 µM): 17.3% | viability, T/C (second compound 0.00949 µM, first compound 0.01 µM): 16.4% | viability, T/C (second compound 0.00949 µM, first compound 0.0316 µM): 17.7% | viability, T/C (second compound 0.00949 µM, first compound 0.1 µM): 18% | viability, T/C (second compound 0.00949 µM, first compound 0.316 µM): 15.6% | viability, T/C (second compound 0.00949 µM, first compound 1 µM): 14.8% | viability, T/C (second compound 0.03 µM, first compound 0.00316 µM): 17.7% | viability, T/C (second compound 0.03 µM, first compound 0.01 µM): 18.3% | viability, T/C (second compound 0.03 µM, first compound 0.0316 µM): 17.5% | viability, T/C (second compound 0.03 µM, first compound 0.1 µM): 16.3% | viability, T/C (second compound 0.03 µM, first compound 0.316 µM): 14% | viability, T/C (second compound 0.03 µM, first compound 1 µM): 17.8% | viability, T/C (second compound 0.0949 µM, first compound 0.00316 µM): 15.6% | viability, T/C (second compound 0.0949 µM, first compound 0.01 µM): 16.7% | viability, T/C (second compound 0.0949 µM, first compound 0.0316 µM): 16.5% | viability, T/C (second compound 0.0949 µM, first compound 0.1 µM): 17.7% | viability, T/C (second compound 0.0949 µM, first compound 0.316 µM): 14.9% | viability, T/C (second compound 0.0949 µM, first compound 1 µM): 19.4% | viability, T/C (second compound 0.3 µM, first compound 0.00316 µM): 17% | viability, T/C (second compound 0.3 µM, first compound 0.01 µM): 17.2% | viability, T/C (second compound 0.3 µM, first compound 0.0316 µM): 17.1% | viability, T/C (second compound 0.3 µM, first compound 0.1 µM): 14.5% | viability, T/C (second compound 0.3 µM, first compound 0.316 µM): 18.5% | viability, T/C (second compound 0.3 µM, first compound 1 µM): 18.2%

IC50 (second compound 0.000949 µM): < 0.949 nM | IC50 (second compound 0.003 µM): < 0.949 nM | IC50 (second compound 0.00949 µM): < 0.949 nM | IC50 (second compound 0.03 µM): < 0.949 nM | IC50 (second compound 0.0949 µM): < 0.949 nM | IC50 (second compound 0.3 µM): < 0.949 nM
SMILES: CC1(C)CCC(Nc2ncc(C(F)(F)F)c(-c3c[nH]c4c(P(C)(C)=O)c(C#N)ccc34)n2)CN1 (centres undefined) + CCn1c(-c2cc(N3CCN(C)CC3)cnc2C(C)OC)c2c3cc(ccc31)-c1csc(n1)CC(NC(=O)C1CC1C)C(=O)N1CCCC(N1)C(=O)OCC(C)(C)C2
viability, T/C (second compound 0.000949 µM, first compound 0.000949 µM): 26.8% | viability, T/C (second compound 0.000949 µM, first compound 0.003 µM): 28.2% | viability, T/C (second compound 0.000949 µM, first compound 0.00949 µM): 23.5% | viability, T/C (second compound 0.000949 µM, first compound 0.03 µM): 27.3% | viability, T/C (second compound 0.000949 µM, first compound 0.0949 µM): 32.7% | viability, T/C (second compound 0.000949 µM, first compound 0.3 µM): 24.8% | viability, T/C (second compound 0.003 µM, first compound 0.000949 µM): 19.8% | viability, T/C (second compound 0.003 µM, first compound 0.003 µM): 18.5% | viability, T/C (second compound 0.003 µM, first compound 0.00949 µM): 16.6% | viability, T/C (second compound 0.003 µM, first compound 0.03 µM): 22.6% | viability, T/C (second compound 0.003 µM, first compound 0.0949 µM): 19.5% | viability, T/C (second compound 0.003 µM, first compound 0.3 µM): 17.1% | viability, T/C (second compound 0.00949 µM, first compound 0.000949 µM): 14% | viability, T/C (second compound 0.00949 µM, first compound 0.003 µM): 10.3% | viability, T/C (second compound 0.00949 µM, first compound 0.00949 µM): 11.3% | viability, T/C (second compound 0.00949 µM, first compound 0.03 µM): 14.4% | viability, T/C (second compound 0.00949 µM, first compound 0.0949 µM): 12.3% | viability, T/C (second compound 0.00949 µM, first compound 0.3 µM): 12.2% | viability, T/C (second compound 0.03 µM, first compound 0.000949 µM): 10.8% | viability, T/C (second compound 0.03 µM, first compound 0.003 µM): 9.52% | viability, T/C (second compound 0.03 µM, first compound 0.00949 µM): 9.8% | viability, T/C (second compound 0.03 µM, first compound 0.03 µM): 10.9% | viability, T/C (second compound 0.03 µM, first compound 0.0949 µM): 9.73% | viability, T/C (second compound 0.03 µM, first compound 0.3 µM): 11.7% | viability, T/C (second compound 0.0949 µM, first compound 0.000949 µM): 9.88% | viability, T/C (second compound 0.0949 µM, first compound 0.003 µM): 9.37% | viability, T/C (second compound 0.0949 µM, first compound 0.00949 µM): 10% | viability, T/C (second compound 0.0949 µM, first compound 0.03 µM): 11.1% | viability, T/C (second compound 0.0949 µM, first compound 0.0949 µM): 8.77% | viability, T/C (second compound 0.0949 µM, first compound 0.3 µM): 11.9% | viability, T/C (second compound 0.3 µM, first compound 0.000949 µM): 9.86% | viability, T/C (second compound 0.3 µM, first compound 0.003 µM): 9.92% | viability, T/C (second compound 0.3 µM, first compound 0.00949 µM): 9.46% | viability, T/C (second compound 0.3 µM, first compound 0.03 µM): 8.06% | viability, T/C (second compound 0.3 µM, first compound 0.0949 µM): 9.53% | viability, T/C (second compound 0.3 µM, first compound 0.3 µM): 10.4%

Source: PubChem BioAssay AID2060896 (Molecular Pharmacology Branch, DTP, NCI, 2025)
